Test results published in publication PMC11597885, “Enhancing Antileishmanial Activity of Amidoxime-Based Compounds Bearing a 4,5-Dihydrofuran Scaffold: In Vitro Screening Against Leishmania amazonensis” (Molecules, 2024).
Read-outs that look alike come from different tables or passages of the source.

What was measured:
[1] = tested on: intracellular amastigote form of Leishmania amazonensis; assay: Antiamastigote activity assay (infected peritoneal macrophages, infection index); assay type: cell-based; conditions: Macrophage, 72 h, L. amazonensis in murine macrophages, mean ± SD from three independent experiments, read-out: Intracellular Amastigotes IC50 (µM/72 h)
Description: Resident peritoneal macrophages were seeded in RPMI medium (Sigma-Aldrich) at 1 × 10^6 cells/mL (0.4 mL/well) on Lab-Tek eight-chamber slides (Nunc) and incubated at 37 °C in 5% CO2 for 1 h. After this period, nonadherent cells were removed, and the adherent macrophages were co-cultured with L. amazonensis promastigotes at a 5:1 parasite-to-cell ratio. After 4 h, the monolayers were washed to eliminate free parasites. Cells were then treated with different concentrations of the compounds and incubated for 72 h at 37 °C in 5% CO2. Following incubation, the slides were stained using the Instant Prov hematological dye (Newprov, Curitiba, Brazil), and antileishmanial activity was assessed microscopically. Amastigote numbers were determined by counting at least 100 macrophages per sample, and the results were expressed as an infection index (II), calculated as: II = (percentage of infected cells) × (number of amastigotes/total macrophages). Dose–response curves for the antiamastigote activity were generated using nonlinear regression in GraphPad Prism 5.0, and IC50 values were calculated.

[2] = tested on: Leishmania amazonensis promastigotes, strain MHOM/BR/77/LTB0016; assay: Antipromastigote activity assay (resazurin); assay type: cell-based; conditions: 72 h, mean ± SD from three independent experiments, read-out: Activity IC50 (µM/72 h), promastigote form of L. amazonensis
Description: Initially, compounds 14 to 25 were subjected to preliminary in vitro screening against Leishmania amazonensis promastigotes, strain MHOM/BR/77/LTB0016. The 50% growth inhibitory concentration (IC50) was measured after 72 h of cultivation with each compound using a resazurin assay conducted in independent triplicate experiments. […] Leishmania amazonensis (MHOM/BR/77/LTB0016) was cultured as promastigotes at 26 °C using Schneider’s insect medium (Sigma-Aldrich, St Louis, MO, USA), supplemented with 10% heat-inactivated fetal calf serum (HIFCS), 100 μg/mL streptomycin, and 100 U/mL penicillin. The parasites were sustained up to the 10th passage, after which fresh cultures were derived from infected host animals. L. amazonensis promastigotes were cultured in Schneider’s insect medium with 10% HIFCS, as described above, with or without various concentrations of test substances. The initial cell density was 1.0 × 10^6 cells/mL, and the culture was kept at 26 °C for 72 h. Resazurin reduction was used to evaluate the cell viability. The concentration required to inhibit 50% of the promastigote activity (IC50) was calculated using logarithmic regression analysis via GraphPrism 5 software.

[3] = Cytotoxicity assay (resazurin); assay type: cell-based; conditions: mouse, murine peritoneal macrophages, 0–200 µM tested, mean ± SD from three independent experiments
Description: Murine peritoneal macrophages were collected by flushing the peritoneal cavity with 5 mL of RPMI 1640 medium containing 10% HIFCS, 2 mM L-glutamine, 1 mM pyruvate, 100 μg/mL streptomycin, and 100 U/mL penicillin. The macrophage suspension was adjusted to 1.0 × 10^6 cells/mL and then plated in triplicate in 96-well plates (Falcon Co., Franklin Lakes, NJ, USA). Cultures were incubated at 37 °C in a 5% CO2 environment for 1 h. Nonadherent cells were subsequently removed, and the remaining cells were exposed to varying concentrations of test compounds (0–200 μM) for 72 h. Viability was assessed using a resazurin assay, and the concentration that caused 50% cytotoxicity (CC50) was determined using logarithmic regression analysis with GraphPrism 5 software.

[4] = tested on: intracellular amastigote form of Leishmania amazonensis; set-up: method as in PMID 21555166, PMID 20833057; conditions: previously reported HIT; read-out: IC50 for the intracellular amastigote form of L. amazonensis; cited from earlier work

Compound	IC50 [1]	IC50 [2]	CC50 at 72 h [3]	IC50 [4]
CC1(Cc2ccccc2)CC(C(=O)Nc2ccc(Br)cn2)=C(c2ccc(C(N)=NO)cc2)O1 (stereo not shown) [Compound 14, 5-Benzyl-N-(5-bromopyridin-2-yl)-2-(4-(N′-hydroxycarbamimidoyl)phenyl)-5-methyl-4,5-dihydrofuran-3-carboxamide]	0.5 ± 0.15 µM	15 ± 1.03 µM	171.5 ± 1.19 µM	
CC1(Cc2ccccc2)CC(C(=O)Nc2ccncc2)=C(c2ccc(C(N)=NO)cc2)O1 (stereo not shown) [Compound 18, 5-Benzyl-2-(4-(N′-hydroxycarbamimidoyl)phenyl)-5-methyl-N-(pyridin-4-yl)-4,5-dihydrofuran-3-carboxamide]		23.5 ± 1.04 µM		
CC1(Cc2ccccc2)CC(C(=O)Nc2ccccc2)=C(c2ccc(C(N)=NO)cc2)O1 (stereo not shown) [Compound 19, 5-Benzyl-2-(4-(N′-hydroxycarbamimidoyl)phenyl)-5-methyl-N-phenyl-4,5-dihydrofuran-3-carboxamide]		23.8 ± 1.02 µM		
CC1(Cc2ccccc2)CC(C(=O)Nc2ccc(F)cc2)=C(c2ccc(C(N)=NO)cc2)O1 (stereo not shown) [Compound 20, 5-Benzyl-N-(4-fluorophenyl)-2-(4-(N′-hydroxycarbamimidoyl)phenyl)-5-methyl-4,5-dihydrofuran-3-carboxamide]		23.8 ± 1.02 µM		
CC1(Cc2ccccc2)CC(C(=O)NCc2ccc(C(F)(F)F)cc2)=C(c2ccc(C(N)=NO)cc2)O1 (stereo not shown) [Compound 21, 5-Benzyl-2-(4-(N′-hydroxycarbamimidoyl)phenyl)-5-methyl-N-(4-(trifluoromethyl)benzyl)-4,5-dihydrofuran-3-carboxamide]		26.4 ± 1.02 µM		
CC1(Cc2ccccc2)CC(C(=O)Nc2ccc(Cl)nn2)=C(c2ccc(C(N)=NO)cc2)O1 (stereo not shown) [Compound 23, 5-Benzyl-N-(6-chloropyridazin-3-yl)-2-(4-(N′-hydroxycarbamimidoyl)phenyl)-5-methyl-4,5-dihydrofuran-3-carboxamide]		36.4 ± 1.03 µM		
Cc1cc(NC(=O)C2=C(c3ccc(C(N)=NO)cc3)OC(C)(Cc3ccccc3)C2)nn1C (stereo not shown) [Compound 25, 5-Benzyl-N-(1,5-dimethyl-1H-pyrazol-3-yl)-2-(4-(N′-hydroxycarbamimidoyl)phenyl)-5-methyl-4,5-dihydrofuran-3-carboxamide]		52.5 ± 1.03 µM		
CC1(Cc2ccccc2)CC(S(=O)(=O)c2ccc(F)cc2)=C(c2ccc(C(N)=NO)cc2)O1 (stereo not shown) [HIT, 4-(5-benzyl-3-((4-fluorophenyl)sulfonyl)-5-methyl-4,5-dihydrofuran-2-yl)-N′-hydroxybenzimidamide]				7.9 ± 1.1 µM

Further lines, with some results ahead:

IC50 [1]	IC50 [2]	Compound	CC50 at 72 h [3]	IC50 [4]
0.6 ± 0.2 µM	16 ± 1.03 µM	CC1(Cc2ccccc2)CC(C(=O)Nc2ccc(Cl)cn2)=C(c2ccc(C(N)=NO)cc2)O1 (stereo not shown) [Compound 15, 5-Benzyl-N-(5-chloropyridin-2-yl)-2-(4-(N′-hydroxycarbamimidoyl)phenyl)-5-methyl-4,5-dihydrofuran-3-carboxamide]	> 200 µM	
0.3 ± 0.07 µM	17 ± 1.02 µM	Cc1ccc(NC(=O)C2=C(c3ccc(C(N)=NO)cc3)OC(C)(Cc3ccccc3)C2)nc1 (stereo not shown) [Compound 16, 5-Benzyl-2-(4-(N′-hydroxycarbamimidoyl)phenyl)-5-methyl-N-(5-methylpyridin-2-yl)-4,5-dihydrofuran-3-carboxamide]	> 200 µM	
	22.4 ± 1.02 µM	CC1(Cc2ccccc2)CC(C(=O)Nc2ccccn2)=C(c2ccc(C(N)=NO)cc2)O1 (stereo not shown) [Compound 17, 5-Benzyl-2-(4-(N′-hydroxycarbamimidoyl)phenyl)-5-methyl-N-(pyridin-2-yl)-4,5-dihydrofuran-3-carboxamide]		
	29.9 ± 1.02 µM	CC1(Cc2ccccc2)CC(C(=O)Nc2cccnn2)=C(c2ccc(C(N)=NO)cc2)O1 (stereo not shown) [Compound 22, 5-Benzyl-2-(4-(N′-hydroxycarbamimidoyl)phenyl)-5-methyl-N-(pyridazin-3-yl)-4,5-dihydrofuran-3-carboxamide]		
	39.4 ± 1.02 µM	CC1(Cc2ccccc2)CC(C(=O)Nc2cnccn2)=C(c2ccc(C(N)=NO)cc2)O1 (stereo not shown) [Compound 24, 5-Benzyl-2-(4-(N′-hydroxycarbamimidoyl)phenyl)-5-methyl-N-(pyrazin-2-yl)-4,5-dihydrofuran-3-carboxamide]		
